The values below come from patent publication US5786486A, “Acrylamide derivatives and process for production thereof” (Kyorin Pharmaceutical Co., Ltd., priority 1994, dated 1998).

The term IC50 denotes the midpoint of a concentration-inhibition curve. A high value points to a need for much substance.

Values after ≈ are worked out from the molar mass of the structure shown.

The test system of one data set is Colon 26 cells. Description: Antitumor effect in Colon 26-bearing mice. It is filed as in vivo, CDF1 female mice. The conditions noted are these: for Antitumor activity Colon-26 TGI % (tumor growth inhibition rate): Colon 26-bearing CDF1 mice, single dose via tail vein, tumor weighed one week after; for Chemotherapy index MTD/TGI50: ratio of maximum tolerant dose (mg/kg) to dose giving 50% tumor growth inhibition (mg/kg), colon26-bearing mice. The procedure:
Antitumor effect in Colon 26-bearing mice:
Colon 26 cells 1×10^6 were transplanted into an axillary region of 8-week old CDF1 female mice (Japan SLC Inc., Hamamatsu) subcutaneously. Six days after the transplantation, when the tumor grew palpable, the compound was administered via the tail vein. One week after the administration, the tumor was removed and weighed. The antitumor activity was represented by tumor growth inhibition rate (TGI %=(1--T/C)×100) derived from the ratio (T/C) of the average tumor weight (T) of the compound-administered group to the average tumor weight (C) of the control group.

Another data set concerns HeLa S3 cells. The data set is described as follows: HeLa Cell Growth Inhibition Activity (HeLa S3, MTT). In kind it is cell-based. The conditions noted are these: Homo sapiens, 72 hours exposure. The procedure: HeLa Cell Growth Inhibition Activity:
HeLa S3 cells were maintained as a monolayer culture in Eagle's minimal medium (Nissui Seiyaku K. K., Tokyo) containing […] glutamine, 100 μg/mL of kanamycin sulfate, and 10% inactivated fetal calt serum at 37° C. in a carbon dioxide incubator. The cells 1.8×10^3 were inoculated to a 96-well plate, and were exposed to the test compounds from the next day for 72 hours. Then, the viable cell numbers were measured by evaluating the ability to reduce 3-[4,5-dimethylthiazol-2-yl]-2,5-diphenyltetrazolium bromide (MTT) according to the Mosmann's method (Mosmann,T., J. Imunol. Meth., 65, 55-63, 1983).

Regarding `COC(=O)c1c(C(F)(F)F)[nH]c2c(O)cc3c(c12)[C@H](CCl)CN3C(=O)/C=C/c1ccc(/C=C/C(=O)N2C[C@@H](CCl)c3c2cc(O)c2[nH]c(C(F)(F)F)c(C(=O)OC)c32)cc1` [Example 1, (S,S)-3,3'-[3,3'-(1,4-phenylenediacryloyl)]-bis[1-chloromethyl-5-hydroxy-7-trifluoromethyl-1,2,3,6-tetrahydropyrrolo[3,2-e]indole-8-methoxycarbonyl]], the “Antitumor activity Colon-26 TGI % (tumor growth inhibition rate)” value in the data set with Colon 26 cells (7.81 μg/kg) is listed as 92%. In the data set with Colon 26 cells, the “Chemotherapy index MTD/TGI50” value is 21.9. In addition, in the data set with HeLa S3 cells, the half-inhibitory concentration (IC50) stood at 0.0031 ng/mL (≈ 0.00352 nM).
As to `COC(=O)c1c(C(F)(F)F)[nH]c2c(O)cc3c(c12)[C@H](CCl)CN3C(=O)/C=C/c1ccc(/C=C/C(=O)N2C[C@@H](CCl)c3c2cc(O)c2[nH]c(C(F)(F)F)c(C(=O)OC)c32)c2c(OC)ccc(OC)c12` [Example 3, (S,S)-3,3'-[3,3'-(5,8-dimethoxy-1,4-naphthalenediyl)diacryloyl]-bis[1-chloromethyl-5-hydroxy-7-trifluoromethyl-1,2,3,6-tetrahydropyrrolo [3,2-e]indole-8-methoxycarbonyl]], 0.00934 ng/mL (≈ 0.00944 nM) corresponded to half-maximal inhibition in the data set with HeLa S3 cells (IC50).
As for `COC(=O)c1c(C(F)(F)F)[nH]c2c(O)cc3c(c12)[C@H](CCl)CN3C(=O)/C=C/c1ccc(/C=C/C(=O)N2C[C@@H](CCl)c3c2cc(O)c2[nH]c(C(F)(F)F)c(C(=O)OC)c32)c2c1OCCO2` [Example 4, (S,S)-3,3'-[3,3'-(2,3-(ethylenedioxy)-1,4-phenylene)diacryloyl]-bis[1-chloromethyl-5-hydroxy-7-trifluoromethyl-1,2,3,6-tetrahydropyrrolo [3,2-e]indole-8-methoxycarbonyl]], the “Antitumor activity Colon-26 TGI % (tumor growth inhibition rate)” value in the data set with Colon 26 cells (0.488 μg/kg) turned out to be 91%. Moreover, the “Chemotherapy index MTD/TGI50” value in the data set with Colon 26 cells was 9. The compound further came in with an IC50 in the data set with HeLa S3 cells of 0.00276 ng/mL (≈ 0.00294 nM).
Regarding `COC(=O)c1c(C(F)(F)F)[nH]c2c(O)cc3c(c12)[C@H](CCl)CN3C(=O)/C=C/c1ccc(/C=C/C(=O)N2C[C@@H](CCl)c3c2cc(O)c2[nH]c(C(F)(F)F)c(C(=O)OC)c32)c2c1OCO2` [Example 5, (S,S)-3,3'-[3,3'-(2,3-(methylenedioxy)-1,4-phenylene)diacryloyl]-bis[1-chloromethyl-5-hydroxy-7-trifluoromethyl-1,2,3,6-tetrahydropyrrolo[3,2-e]indole-8-methoxycarbonyl]], the “Antitumor activity Colon-26 TGI % (tumor growth inhibition rate)” value in the data set with Colon 26 cells (1.95 μg/kg) worked out at 90%. The IC50 with HeLa S3 cells was found to be 0.00595 ng/mL (≈ 0.00644 nM).
`CCc1c(/C=C/C(=O)N2C[C@@H](CCl)c3c2cc(O)c2[nH]c(C(F)(F)F)c(C(=O)OC)c32)ccc(/C=C/C(=O)N2C[C@@H](CCl)c3c2cc(O)c2[nH]c(C(F)(F)F)c(C(=O)OC)c32)c1CC` [Example 6, (S,S)-3,3'-[3,3'-(2,3-diethyl-1,4-phenylene)diacryloyl]-bis[1-chloromethyl-5-hydroxy-7-trifluoromethyl-1,2,3,6-tetrahydropyrrolo[3,2-e]indole-8-methoxycarbonyl]] had an IC50 in the data set on HeLa S3 cells of 0.0318 ng/mL (≈ 0.034 nM).
For `COC(=O)c1c(C(F)(F)F)[nH]c2c(O)cc3c(c12)[C@H](CCl)CN3C(=O)/C=C/c1ccc(/C=C/C(=O)N2C[C@@H](CCl)c3c2cc(O)c2[nH]c(C(F)(F)F)c(C(=O)OC)c32)c(OC)c1OC` [Example 8, (S,S)-3,3'-[3,3 '-(2,3-dimethoxy-1,4-phenylene)diacryloyl]-bis[1-chloromethy 1-5-hydroxy-7-trifluoromethyl-1,2,3,6-tetrahydropyrrolo[3,2-e]indole-8-methoxycarbonyl]], in the data set on Colon 26 cells (0.977 μg/kg), the “Antitumor activity Colon-26 TGI % (tumor growth inhibition rate)” value came to 89%. Also, in the data set on Colon 26 cells, the “Chemotherapy index MTD/TGI50” value turned out to be 4.6. In the data set with HeLa S3 cells, this compound had a concentration for half-maximal inhibition (IC50) of 0.00158 ng/mL (≈ 0.00168 nM).
Turning to `COC(=O)c1c(C(F)(F)F)[nH]c2c(O)cc3c(c12)[C@H](CCl)CN3C(=O)/C=C/c1ccc(/C=C/C(=O)N2C[C@@H](CCl)c3c2cc(O)c2[nH]c(C(F)(F)F)c(C(=O)OC)c32)c2ccccc12` [Example 10, (S,S)-3,3'-[3,3'-(1,4-naphthalenediyl)diacryloyl]-bis[1-chloromethyl-5-hydroxy-7-trifluoromethyl-1,2,3,6-tetrahydropyrrolo[3,2-e]indole-8-methoxycarbonyl]], the “Antitumor activity Colon-26 TGI % (tumor growth inhibition rate)” value with Colon 26 cells (0.977 μg/kg) was determined as 85%. In addition, the “Chemotherapy index MTD/TGI50” value with Colon 26 cells is given as 7.4. In the data set on HeLa S3 cells, this compound registered a half-inhibitory concentration (IC50) of 0.011 ng/mL (≈ 0.0118 nM).
For the compound `COC(=O)c1c(C(F)(F)F)[nH]c2c(O)cc3c(c12)[C@H](CCl)CN3C(=O)/C=C/c1ccc(-c2ccc(/C=C/C(=O)N3C[C@@H](CCl)c4c3cc(O)c3[nH]c(C(F)(F)F)c(C(=O)OC)c43)cn2)nc1` [Example 13, (S,S)-3,3'-[3,3'-(2,2'-bipyridyl-5,5'-diyl)diacryloyl]-bis[1-chloromethyl-5-hydroxy-7-trifluoromethyl-1,2,3,6-tetrahydropyrrolo [3,2-e]indole-8-methoxycarbonyl]], in the data set on Colon 26 cells (3.91 μg/kg), the “Antitumor activity Colon-26 TGI % (tumor growth inhibition rate)” value came out at 88%. The “Chemotherapy index MTD/TGI50” value in the data set with Colon 26 cells turned out to be 3.6. The 50% inhibitory concentration (IC50) in the data set with HeLa S3 cells was 0.0198 ng/mL (≈ 0.0207 nM).
As for `COC(=O)c1c(C)[nH]c2c(O)cc3c(c12)[C@H](CCl)CN3C(=O)/C=C/c1ccc(/C=C/C(=O)N2C[C@@H](CCl)c3c2cc(O)c2[nH]c(C)c(C(=O)OC)c32)cc1` [Example 18, (S,S)-3,3'-[3,3'-(1,4-phenylene)diacryloyl]-bis[1-chloromethyl-5-hydroxy-7-methyl-1,2,3,6-tetrahydropyrrolo [3,2-e]indole-8-methoxycarbonyl]], in the data set with HeLa S3 cells, half-maximal inhibition (IC50) was put at 0.000459 ng/mL (≈ 0.000595 nM).
Compound `Cc1c[nH]c2c(O)cc3c(c12)[C@H](CCl)CN3C(=O)/C=C/c1ccc(/C=C/C(=O)N2C[C@@H](CCl)c3c2cc(O)c2[nH]cc(C)c32)cc1` [Example 19, (S,S)-3,3'-[3,3'-(1,4-phenylene)diacryloy]-bis[1-chloromethyl-5-hydroxy-8-methyl-1,2,3,6-tetrahydropyrrolo[3,2-e]indole]] gave an IC50 in the data set with HeLa S3 cells of 0.0134 ng/mL (≈ 0.0204 nM).
The same measure, in the same setting: to `O=C(/C=C/c1ccc(/C=C/C(=O)N2C[C@@H](CCl)c3c2cc(O)c2[nH]c4ccccc4c32)cc1)N1C[C@@H](CCl)c2c1cc(O)c1[nH]c3ccccc3c21` [Example 20, (S,S)-3,3'-[3,3'-(1,4-phenylene)diacryloyl]-bis[1-chloromethyl-5-hydroxy-1,2-dihydropyrrolo[3,2-a]carbazole]] belongs 0.0716 ng/mL (≈ 0.0984 nM).
Still for that read-out and setting: to `COC(=O)c1c[nH]c2c(O)cc3c(c12)[C@H](CCl)CN3C(=O)/C=C/c1ccc(/C=C/C(=O)N2C[C@@H](CCl)c3c2cc(O)c2[nH]cc(C(=O)OC)c32)cc1` [Example 21, (S,S)-3,3'-[3,3'-(1,4-phenylene)diacryloy]-bis[1-chloromethyl-5-hydroxy-1,2,3,6-tetrahydropyrrolo[3,2-e]indole-8-methoxycarbonyl]] belongs 0.00035 ng/mL (≈ 0.000471 nM); to `COC(=O)c1cc2c3c(cc(O)c2[nH]1)N(C(=O)/C=C/c1ccc(/C=C/C(=O)N2C[C@@H](CCl)c4c2cc(O)c2[nH]c(C(=O)OC)cc42)cc1)C[C@H]3CCl` [Example 22, (S,S)-3,3'-[3,3 '-(1,4-phenylene)diacryloy]-bis[1-chloromethyl-5-hydroxy-1,2,3,6-tetrahydropyrrolo[3,2-e]indole-7-methoxycarbonyl]], 0.0227 ng/mL (≈ 0.0305 nM).
